Experimental data: patent US10294246B2, “Substituted boronic acids and boronate esters as immunoproteasome inhibitors” (MERCK PATENT GMBH, priority 2014, dated 2019)

Experiments:
[1] = target: human immunoproteasome (LMP7) (Homo sapiens (Human), UniProt P28062); assay: Determination of LMP7 activity (fluorescence intensity assay, Suc-LLVY-AMC); type: biochemical; conditions: for Selectivity LMP7 vs Beta5: LMP7 versus Beta5; for IC50: purified human immunoproteasome 0.25 nM, Suc-LLVY-AMC 40 μM
Method: Determination of LMP7 Activity:
Measurement of LMP7 inhibition is performed in 384 well format based on fluorescence intensity assay.
(§1) Purified human immunoproteasome (0.25 nM) and serial diluted compounds in DMSO (range of concentrations from 30 μM to […]) or controls are incubated for 20 minutes at 25° C. in assay buffer containing 50 mM Tris pH 7.4, 0.03% SDS, 1 mM EDTA and 1% DMSO. The reaction is initiated by the addition of the fluorogenic peptide substrate, Suc-LLVY-AMC (Bachem 1-1395), at a concentration of 40 μM. After 60 minutes of incubation at 37° C., fluorescence intensity is measured at λex=350 nm and λem=450 nm with a fluorescence reader (Perkin Elmer Envision reader or equivalent).

[2] = target: human constitutive proteasome (Beta5) (Homo sapiens (Human), UniProt P28074); assay: Determination of Beta5 activity (fluorescence intensity assay, Suc-LLVY-AMC); type: biochemical; conditions: purified human constitutive proteasome 1.25 nM, Suc-LLVY-AMC 40 μM
Method: Determination of Beta5 Activity:
Measurement of Beta5 inhibition is performed in 384 well format based on fluorescence intensity assay.
as §1, with “constitutive proteasome (1.25” for “immunoproteasome (0.25”

Selectivity LMP7 vs Beta5 [1]	IC50 [1]	IC50 [2]	Compound
++++ (70 ≤ Selectivity < 100)	< 50 nM	50 to 500 nM	COc1ccccc1CC(=O)N[C@@H](Cc1coc2ccccc12)B(O)O [Compound No. 27, [(1R)-2-(benzofuran-3-yl)-1-[[2-(2-methoxyphenyl)acetyl]amino]ethyl]-boronic acid]
+++++ (Selectivity ≥ 100)	< 50 nM	500 to 5000 nM	O=C(Cc1ccccc1OC(F)(F)F)N[C@@H](Cc1coc2ccccc12)B(O)O [Compound No. 28, [(1R)-2-(benzofuran-3-yl)-1-[[2-[2-(trifluoromethoxy)phenyl]acetyl]-amino]ethyl]boronic acid]
+++++ (Selectivity ≥ 100)	50 to 500 nM	> 5000 nM	Cc1ccc(C[C@H](NC(=O)Cc2ccccc2)B(O)O)c(C)c1 [Compound No. 29, [(1R)-2-(2,4-dimethylphenyl)-1-[(2-phenylacetyl)amino]ethyl]boronic acid]
++++ (70 ≤ Selectivity < 100)	< 50 nM	50 to 500 nM	COCc1ccc(CC(=O)N[C@@H](Cc2coc3ccccc23)B(O)O)cc1 [Compound No. 30, [(1R)-2-(benzofuran-3-yl)-1-[[2-[4-(methoxymethyl)phenyl]acetyl]-amino]ethyl]boronic acid]
++++ (70 ≤ Selectivity < 100)	< 50 nM	50 to 500 nM	O=C(Cc1cccc(OCCCO)c1)N[C@@H](Cc1coc2ccccc12)B(O)O [Compound No. 31, [(1R)-2-(benzofuran-3-yl)-1-[[2-[3-(3-hydroxypropoxy)phenyl]acetyl]-amino]ethyl]boronic acid]
++++ (70 ≤ Selectivity < 100)		50 to 500 nM	CC(=O)Nc1cccc(CC(=O)N[C@@H](Cc2coc3ccccc23)B(O)O)c1 [Compound No. 32, [(1R)-1-[[2-(3-acetamidophenyl)acetyl]amino]-2-(benzofuran-3-yl)ethyl]boronic acid]
+++++ (Selectivity ≥ 100)		500 to 5000 nM	CO[C@H](C(=O)N[C@@H](Cc1coc2ccccc12)B(O)O)c1ccccc1 [Compound No. 33, [(1R)-2-(benzofuran-3-yl)-1-[[(2S)-2-methoxy-2-phenyl-acetyl]amino]-ethyl]boronic acid]
+++++ (Selectivity ≥ 100)	< 50 nM	500 to 5000 nM	CO[C@@H](C(=O)N[C@@H](Cc1coc2ccccc12)B(O)O)c1ccccc1 [Compound No. 34, [(1R)-2-(benzofuran-3-yl)-1-[[(2R)-2-methoxy-2-phenyl-acetyl]amino]-ethyl]boronic acid]
++ (10 ≤ Selectivity < 50)	50 to 500 nM	500 to 5000 nM	Cc1ccc(C[C@H](NC(=O)Cc2c(C)cccc2C)B(O)O)c(C)c1 [Compound No. 35, [(1R)-2-(2,4-dimethylphenyl)-1-[[2-(2,6-dimethylphenyl)acetyl]amino]-ethyl]boronic acid]
+ (Selectivity < 10)	500 to 5000 nM	> 5000 nM	Cc1ccc(C[C@H](NC(=O)C2(c3ccccc3)CC2)B(O)O)c(C)c1 [Compound No. 36, [(1R)-2-(2,4-dimethylphenyl)-1-[(1-phenylcyclopropanecarbonyl)-amino]ethyl]boronic acid]
+++++ (Selectivity ≥ 100)		500 to 5000 nM	C[C@H](C(=O)N[C@@H](Cc1coc2ccccc12)B(O)O)c1ccccc1 [Compound No. 37, [(1R)-2-(benzofuran-3-yl)-1-[[(2S)-2-phenylpropanoyl]amino]ethyl]-boronic acid]
++++ (70 ≤ Selectivity < 100)	< 50 nM	500 to 5000 nM	CC(=O)Nc1ccc(CC(=O)N[C@@H](Cc2ccc(C)cc2C)B(O)O)cc1 [Compound No. 38]
+++++ (Selectivity ≥ 100)	< 50 nM	50 to 500 nM	O=C(Cc1ccc(OCCO)cc1)N[C@@H](Cc1coc2ccccc12)B(O)O [Compound No. 39, [(1R)-2-(benzofuran-3-yl)-1-[[2-[4-(2-hydroxyethoxy)phenyl]acetyl]-amino]ethyl]boronic acid]
+++++ (Selectivity ≥ 100)	< 50 nM	50 to 500 nM	O=C(Cc1ccc(OCCCO)cc1)N[C@@H](Cc1coc2ccccc12)B(O)O [Compound No. 40, [(1R)-2-(benzofuran-3-yl)-1-[[2-[4-(3-hydroxypropoxy)phenyl]acetyl]-amino]ethyl]boronic acid]
+++++ (Selectivity ≥ 100)	< 50 nM	50 to 500 nM	O=C(Cc1cccc(OCCO)c1)N[C@@H](Cc1coc2ccccc12)B(O)O [Compound No. 41, [(1R)-2-(benzofuran-3-yl)-1-[[2-[3-(2-hydroxyethoxy)phenyl]acetyl]-amino]ethyl]boronic acid]
++ (10 ≤ Selectivity < 50)	50 to 500 nM	> 5000 nM	COc1cccc(OC)c1CC(=O)N[C@@H](Cc1ccc(C)cc1C)B(O)O [Compound No. 42, [(1R)-1-[[2-(2,6-dimethoxyphenyl)acetyl]amino]-2-(2,4-dimethylphenyl)ethyl]boronic acid]
+++++ (Selectivity ≥ 100)	< 50 nM	500 to 5000 nM	Cc1ccc(C[C@H](NC(=O)Cc2ccc(N3CCCC3=O)cc2)B(O)O)c(C)c1 [Compound No. 43, [(1R)-2-(2,4-dimethylphenyl)-1-[[2-[4-(2-oxopyrrolidin-1-yl)phenyl]-acetyl]amino]ethyl]boronic acid]
+++++ (Selectivity ≥ 100)	< 50 nM	> 5000 nM	Cc1ccc(C[C@H](NC(=O)Cc2ccc(N(C)C)cc2)B(O)O)c(C)c1 [Compound No. 44, [(1R)-1-[[2-(4-dimethylaminophenyl)acetyl]amino]-2-(2,4-dimethylphenyl)ethyl]boronic acid]
+++ (50 ≤ Selectivity < 70)	< 50 nM	500 to 5000 nM	C[C@@H](C(=O)N[C@@H](Cc1coc2ccccc12)B(O)O)c1ccccc1 [Compound No. 45, [(1R)-2-(benzofuran-3-yl)-1-[[(2R)-2-phenylpropanoyl]amino]ethyl]-boronic acid]
++++ (70 ≤ Selectivity < 100)	50 to 500 nM	> 5000 nM	Cc1ccc(C[C@H](NC(=O)Cc2ccc(NS(C)(=O)=O)cc2)B(O)O)c(C)c1 [Compound No. 46, [(1R)-2-(2,4-dimethylphenyl)-1-[[2-[4-(methanesulfonamido)phenyl]-acetyl]amino]ethyl]boronic acid]
+++++ (Selectivity ≥ 100)	50 to 500 nM	> 5000 nM	COCC(=O)Nc1ccc(CC(=O)N[C@@H](Cc2ccc(C)cc2C)B(O)O)cc1 [Compound No. 47, [(1R)-2-(2,4-dimethylphenyl)-1-[[2-[4-[(2-methoxyacetyl)amino]-phenyl]acetyl]amino]ethyl]boronic acid]
+++++ (Selectivity ≥ 100)	< 50 nM	500 to 5000 nM	COCc1ccccc1CC(=O)N[C@@H](Cc1coc2ccccc12)B(O)O [Compound No. 48, [(1R)-2-(benzofuran-3-yl)-1-[[2-[2-(methoxymethyl)phenyl]acetyl]-amino]ethyl]boronic acid]
+++++ (Selectivity ≥ 100)	< 50 nM	50 to 500 nM	COCc1cccc(CC(=O)N[C@@H](Cc2coc3ccccc23)B(O)O)c1 [Compound No. 49, [(1R)-2-(benzofuran-3-yl)-1-[[2-[3-(methoxymethyl)phenyl]acetyl]-amino]ethyl]boronic acid]
+++ (50 ≤ Selectivity < 70)	< 50 nM	500 to 5000 nM	O=C(Cc1ccccc1OCCO)N[C@@H](Cc1coc2ccccc12)B(O)O [Compound No. 50, [(1R)-2-(benzofuran-3-yl)-1-[[2-[2-(2-hydroxyethoxy)phenyl]acetyl]-amino]ethyl]boronic acid]
+++++ (Selectivity ≥ 100)		500 to 5000 nM	COc1ccc(C(F)(F)C(=O)N[C@@H](Cc2coc3ccccc23)B(O)O)cc1 [Compound No. 51, [(1R)-2-(benzofuran-3-yl)-1-[[2,2-difluoro-2-(4-methoxyphenyl)acetyl]-amino]ethyl]boronic acid]
++ (10 ≤ Selectivity < 50)	< 50 nM	50 to 500 nM	COc1cc(CC(=O)N[C@@H](Cc2coc3ccccc23)B(O)O)cc(OC)c1OC [Compound No. 52, [(1R)-2-(benzofuran-3-yl)-1-[[2-(3,4,5-trimethoxyphenyl)acetyl]amino]-ethyl]boronic acid]
++ (10 ≤ Selectivity < 50)	< 50 nM	500 to 5000 nM	Cc1ccc(C[C@H](NC(=O)Cc2ccc(NC(=O)C(F)(F)F)cc2)B(O)O)c(C)c1 [Compound No. 53, [(1R)-2-(2,4-dimethylphenyl)-1-[[2-[4-[(2,2,2-trifluoroacetyl)amino]-phenyl]acetyl]amino]ethyl]boronic acid]
